Source: US4866084A, “Topsentin compounds effective against viruses and certain tumors” (Harbor Branch Oceanographic Institution, Inc., priority 1988, dated 1989)
In brackets after ≈: the same amount, converted by molar mass. Like-named read-outs stand apart in the source and are kept apart here.

Key:
[1] = system: CV-1 cells; assay: Cytotoxicity in antiviral assay (Table 4); format: cell-based, African green monkey; set-up: key: 0 = no cytotoxicity, 16 = complete cell destruction
Method: (§1) a. Herpes simplex type 1 (HSV-1) replicates in the CV-1 cell line. CV-1 is a fibroblast-like cell culture derived from primary African green monkey cells. a. For drug evaluation wet filter paper discs (6 mm dia.) with approx. 0.02 ml of test compound. Allow solvent to evaporate for 20-30 mins. at ambient temperature, then place discs in the well containing CV-1 cells, virus and MCO. b. Incubate tissue culture plates for 48 hrs. at 37 C. c. After 48 hrs. place 0.5 ml NRMCO on each well. (NRMCO is a maintenance overlay medium without phenol red containing 0.1 mg neutral red dye/ml and 2% 15 Cps. methylcellulose. b. Cytotoxicity (Cyt) 0=no visual or microscopic cytotoxicity 16=complete cell destruction 8, 10, 12, 14=partial cytotoxicity.

[2] = system: P388 murine leukemia cells; assay: P388 in vitro antitumor screen (MTT, 48 h); format: cell-based
Method: Cell Culture. P388 murine leukemia cells, obtained from the National Cancer Institute, Bethesda, MD, were maintained at 37° C. in 5% CO2 in humidified air. Growth medium was Roswell Park Memorial Institute medium 1640 supplemented with 10% heat-inactivated horse serum. Stock cultures of P388 cells were grown in antibiotic-free growth medium and were subcultured (10^5 cells/ml, 25 ml cultures in T-25 plastic tissue culture flasks) every 2-3 days. […] An appropriate volume of the dilution was transferred to duplicate wells in a 96-well plate, evaporated to dryness, and 200 μl of growth medium containing cells at a density of 1×10^5 cells/ml was added per well. […] For daily quality control, each technician determines the IC50 of fluorouracil for inhibition of P388 cell proliferation. After 48-hour incubations, cell number was determined with the MTT assay (below), calculated as a percent of untreated cell growth, converted to percent inhibition, and reported to the chemist requesting the screen.
Determination of IC50 Values. The initial determination of an IC50 value for inhibition of P388 cell proliferation with a crude, semipure, or pure sample was made by diluting the sample in methanol to the appropriate concentration and then serial 1:1 dilutions were made in duplicate in a 96-well plate, such that the final concentrations in the assay were […] μg/ml. After solvent was evaporated to dryness, cells were added to each well as described above. After 48-hour incubations, cell numbers were determined with the MTT assay, converted to percent control, plotted versus the log of the sample concentration. Curves were fitted by least-squares linear regression of logit-transformed data and the concentration of sample that inhibited cell proliferation by 50% was reported to the chemist requesting the screen.
MTT Assay for Cell Number. MTT or 3-(4,5-Dimethylthiazol-2-yl)-2,5-diphenyl-tetrazolium bromide is used in an established method (J. Immunol. Methods, 1983, 65: 55-63) to enumerate cells rather than "Coulter counting".

[3] = system: CV-1 cells; assay: Cytotoxicity in antiviral disc assay (Table 3); format: cell-based, African green monkey; set-up: key: 0 = no cytotoxicity, 16 = complete cell destruction
Method: as §1

[4] = system: P388 leukemia; format: in vivo, BDF1 mice; settings: days 1-5, mice
Method: P388 leukemia obtained from DBA/2 mice was inoculated ip into BDF1 mice. The inoculum level was 10^6 cells in 0.1 ml. Mice were randomized on day 1 into groups of six mice since bacteriological check of tumor was negative. Test materials were dissolved or suspended in sterile 0.98% NaCl solution with the aid of absolute ethanol and "Tween-80", then administered ip, qD1-5, in a volume of 0.5 ml/mouse. Mice were weighed on days 1 & 5 to provide evidence of toxicity and deaths were recorded daily. Each test included appropriate numbers of untested control mice, one-dose level of the positive reference compound 5-fluorouracil and test material (four dose levels each). Test material were prepared fresh on day 1 and administered daily for five days. Quantity and consistency of test material precluded fresh preparation daily. Doses were derived from prior single treatment acute toxicity assays. The endpoints for therapeutic evaluation were mean and median survival time and long-term survivors on day 30. A 25% percent increase in life span (%ILS) was considered evidence of significant activity.

[5] = system: Herpes simplex virus type 1 (HSV-1); assay: Antiviral disc assay for HSV-1 (Table 3); format: cell-based, Herpes simplex type 1 (HSV-1)
Method: (§2) a. Herpes simplex type 1 (HSV-1) replicates in the CV-1 cell line. CV-1 is a fibroblast-like cell culture derived from primary African green monkey cells.
(§3) a. Dilute the cells with EMEM to 4×10^5 cells/ml.
(§4) b. See 24-well trays with 0.5 ml per well. Cell concentration is […] cells.
(§5) c. Incubate at 37 C. for 1.5 hours.
(§6) d. The wells can be used over the next several days beginning the day after seeding (preferably 2, 3, or 4).
(§7) a. Remove medium from wells.
(§8) b. Infect well with at least 25 and no more than 80 plaque forming units (PFU) of virus.
(§9) c. Incubate infected cells at 37 C. for 1.5 hrs.
(§10) d. Pour off supernatant at end of incubation period.
(§11) e. Add 0.5 ml of methylcellulose overlay medium (MCO). MCO is a maintenance medium without phenol red made with 1% 4000 centipose methylcellulose. FBS is used at 5% level.
(§12) a. For drug evaluation wet filter paper discs (6 mm dia.) with approx. 0.02 ml of test compound. Allow solvent to evaporate for 20-30 mins. at ambient temperature, then place discs in the well containing CV-1 cells, virus and MCO.
(§13) b. Incubate tissue culture plates for 48 hrs. at 37 C.
(§14) c. After 48 hrs. place 0.5 ml NRMCO on each well. (NRMCO is a maintenance overlay medium without phenol red containing 0.1 mg neutral red dye/ml and 2% 15 Cps. methylcellulose.
(§15) d. Incubate plates at 37 C. and read the following day. Antiviral activity should be observed from two parameters. One is actual reduction in the number of plaques and two is the diminution in plaque diameter.
(§16) a. Antiviral activity (AVA) is scored from 0 to +++.
(§17) +++=complete inhibiton of plaque formation

[6] = system: A549 human lung carcinoma cells; assay: Human tumor cell line assay, A549; format: cell-based; settings: 120 h, read-out: A549: cell density compared with control growth; for activity at 500 fg/mL: 0.5 pg/ml
Method: (§18) HCT-8 human colon tumor cells are grown in RPM1 1640 medium (GIBCO). A549 human lung carcinoma cells and T47D human breast carcinoma cells are cultured in Dulbecco medium (Biologos, Inc.). All media are supplemented with 10% fetal bovine serum and contain 50 μg/ml gentamicin. All human tumor cell lines are incubated in 5% CO2 at 37° C. and subcultured once a week.
(§19) 2. Incubate in a CO2 -incubator for 48 hours.
(§20) 3. Add compound to each well and incubate for an additional 120 hours.
(§21) 4. Discard medium and stain with methylene blue (HCT-8) or crystal violet (A549 & T47D).
(§22) 5. Compare density of drug-treated well with that of the control (no drug added) as follows: ND (not detectable) >90%, 1+=75-90%, 2+=50-74%, 3+=25-49%, 4+=<25% of control growth.
(§23) Final conc. of Vinblastine or Vincristine control (use 2 μl/assay).
(§24) For solvents other than water, allow solvent to evaporate from tube or well in hood. Always run a solvent control in duplicate in the last two wells of each plate or four tubes for each rack of 72 or fewer tubes. Also run four wells or tubes with media and cells only per run of plates or tubes. When using volumes of aqueous solutions greater than 200 ml, dry sample and bring to desired concentration in media.

[7] = Biological activities of synthesized versus natural topsentin
[8] = system: T47D human breast carcinoma cells; assay: Human tumor cell line assay, T47D; format: cell-based; settings: 120 h, read-out: T47D: cell density compared with control growth
Method: as §18, §19, §20, §21, §22, §23, §24

[9] = system: HSV-1; assay: HSV-1 antiviral activity assay (Table 4); format: cell-based, Herpes simplex type 1 (HSV-1); set-up: key to the marks not given beside the values
Method: as §2, §3, §4, §5, §6, §7, §8, §9, §10, §11, §12, §13, §14, §15, §16, §17

[10] = Mus musculus, P388 murine leukemia cells, 48 h, MTT

`O=C(c1nc(-c2c[nH]c3ccccc23)c[nH]1)c1c[nH]c2cc(O)ccc12` [Compound 1, Topsentin] showed a CYT. ([1]; Table 4, 0.2 μg/disk) of 0, a CYT. ([1]; Table 4, 2 μg/disk) of 0 and a CYT. ([1]; Table 4, 20 μg/disk) of 0. For the same compound, the IC50 [2, 10] was 2 mg/L (≈ 5.84 µM), the CYT. ([3]; Table 3, 20 ug/disk) was 0 and the CYT. ([3]; Table 3, 50 ug/disk) was 0. For the same compound, the CYT. ([3]; Table 3, 200 ug/disk) was 0, the “Survival % T/C” value ([4]; 37.5 mg/kg ip) was 111% and the “Survival % T/C” value ([4]; 75 mg/kg ip) was 116%. The “Survival % T/C” value ([4]; 150 mg/kg ip) was 132%, the “Survival % T/C” value ([4]; 300 mg/kg ip) was 110% and the AVA ([5]; Table 3, 50 ug/disk) was “+”. The AVA ([5]; Table 3, 200 ug/disk) was “++”, the activity at 500 fg/mL [6] was > 90% and the activity at 50 pg/mL [6] was < 25%. For the same compound, the “biological activities compared with natural topsentin” value [7] was “identical with natural topsentin in spectral data and in biological activities”, the activity at 5 pg/mL [8] was 50 to 74% and the activity at 20 pg/mL [8] was < 25%. For the same compound, the activity at 50 pg/mL [8] was < 25%, the activity at 500 fg/mL [8] was > 90% and the AVA ([9]; Table 4, 2 μg/disk) was “+++”. The AVA ([9]; Table 4, 20 μg/disk) was “+++”.
Work on `O=C(c1nc(-c2c[nH]c3cc(Br)ccc23)c[nH]1)c1c[nH]c2cc(O)ccc12` [Compound 2, Bromotopsentin] yielded a CYT. ([1]; Table 4, 5 μg/disk) of 0, a CYT. ([1]; Table 4, 10 μg/disk) of 0 and an IC50 [2, 10] of 7 mg/L (≈ 16.6 µM). The CYT. ([3]; Table 3, 50 ug/disk) was 0, the CYT. ([3]; Table 3, 200 ug/disk) was 0 and the “Survival % T/C” value ([4]; 37.5 mg/kg ip) was 105%. For the same compound, the “Survival % T/C” value ([4]; 75 mg/kg ip) was 111%, the “Survival % T/C” value ([4]; 150 mg/kg ip) was 116% and the AVA ([5]; Table 3, 200 ug/disk) was “++”. For the same compound, the activity at 500 fg/mL [6] was > 90%, the activity at 5 pg/mL ([6]; 5 pg/ml) was > 90% and the activity at 50 pg/mL [6] was < 25%. The activity at 5 pg/mL [8] was 50 to 74%, the activity at 20 pg/mL [8] was 25 to 49% and the activity at 50 pg/mL [8] was < 25%. For the same compound, the activity at 500 fg/mL [8] was > 90% and the AVA ([9]; Table 4, 10 μg/disk) was “++”.
In the case of `O=C(C1=NC(c2c[nH]c3ccccc23)CN1)c1c[nH]c2cc(Br)ccc12` (stereo not drawn) [Compound 3, 4,5-dihydro-6"-deoxybromotopsentin], the “P388 IC50” value ([2]; P388 murine leukemia cells, 48 h, MTT) is reported as 4.0 mg/L and the AVA ([9]; Table 4, 20 μg/disk) is reported as “+++”.
`O=C(c1nc(-c2c[nH]c3cc(O)ccc23)c[nH]1)c1c[nH]c2ccccc12` [Compound 4, Isotopsentin] showed a CYT. ([1]; Table 4, 2 μg/disk) of 0, a CYT. ([1]; Table 4, 20 μg/disk) of 0 and an IC50 [2, 10] of 4 mg/L (≈ 11.7 µM). The AVA ([9]; Table 4, 20 μg/disk) was “+++”.
For `O=C(c1nc(-c2c[nH]c3cc(O)ccc23)c[nH]1)c1c[nH]c2cc(O)ccc12` [Compound 5, Hydroxytopsentin], the CYT. ([1]; Table 4, 2 μg/disk) was 0, the CYT. ([1]; Table 4, 20 μg/disk) was 0 and the IC50 [2, 10] was 0.3 mg/L (≈ 0.837 µM). The CYT. ([3]; Table 3, 20 ug/disk) was 0 and the AVA ([9]; Table 4, 20 μg/disk) was “++”.
In the case of `O=C(c1nc(-c2c[nH]c3ccccc23)c[nH]1)c1c[nH]c2ccc(O)cc12` [Compound 7, Neotopsentin], the CYT. ([1]; Table 4, 20 μg/disk) is reported as 0, the IC50 [2, 10] is reported as 2.5 mg/L (≈ 7.3 µM) and the CYT. ([3]; Table 3, 20 ug/disk) is reported as 0.
`O=C(c1nc(-c2c[nH]c3ccc(O)cc23)c[nH]1)c1c[nH]c2ccccc12` [Compound 8, Neoisotopsentin] gave a CYT. ([1]; Table 4, 20 μg/disk) of 0, an IC50 [2, 10] of 1.8 mg/L (≈ 5.26 µM) and a CYT. ([3]; Table 3, 20 ug/disk) of 0.
In the case of `O=C(c1nc(-c2c[nH]c3ccc(O)cc23)c[nH]1)c1c[nH]c2ccc(O)cc12` [Compound 9, Neohydroxytopsentin], the CYT. ([1]; Table 4, 20 μg/disk) is reported as 0, the IC50 [2, 10] is reported as > 20 mg/L and the CYT. ([3]; Table 3, 20 ug/disk) is reported as 0.
`O=c1[nH]cc(F)c(=O)[nH]1` [fluorouracil, 5-fluorouracil, reference compound] showed an inhibition at 0.2 µg/mL ([2]; Mus musculus, P388, read-out: inhibition of cell replication) of ~95%.
